Data taken from the NIST ThermoML archive (doi:10.1016/j.fluid.2008.02.018).
Values joined by “and” are separate entries in the source; they are usually repeats but may differ in a detail not shown here. Equal values may be shown once. Numbers after ± are expanded uncertainties.

Experiments:
[1] = Liquid; for mass density: 101.33 kPa
[2] = refractive index (Na D-line) (dimensionless); details: 298.15 K; 101.33 kPa; Liquid; Standard Abbe refractometry

Row | SMILES | mass density ([1]; 298.15 K) [kg/m3] | vapor or sublimation pressure ([1]; 298.15 K) [kPa] | vapor or sublimation pressure ([1]; 308.15 K) [kPa] | vapor or sublimation pressure ([1]; 318.15 K) | refractive index [2]
1 | ClCCCl [1,2-dichloroethane] | 1250.9 ± 1.7 | 10.81 ± 0.23 | 17.02 ± 0.31 | 25.77 ± 0.42 kPa | 1.4421 ± 0.0007
2 | O=C1CCCCC1 [cyclohexanone] | 943 ± 1.2 | 0.64 ± 0.06 | 1.15 ± 0.08 | 1.91 ± 0.09 kPa | 1.4482 ± 0.0007
3 | O=C1CCCC1 [cyclopentanone] | 945.3 ± 1.2 | 1.72 ± 0.09 | 2.8 ± 0.1 | 4.64 ± 0.13 kPa | 1.4347 ± 0.0007
4 | ClC(Cl)Cl [trichloromethane] | 1475.9 ± 2.1 | 26.44 ± 0.48 | 40.19 ± 0.65 | 58.69 ± 0.87 kPa and 58.68 ± 0.87 kPa | 1.4428 ± 0.0007
